Target: T1, Recombinant human GR (Homo sapiens, UniProt P04150)
T1 construct: purchased Invitrogen P2816
T1 sequence (P04150 1-777): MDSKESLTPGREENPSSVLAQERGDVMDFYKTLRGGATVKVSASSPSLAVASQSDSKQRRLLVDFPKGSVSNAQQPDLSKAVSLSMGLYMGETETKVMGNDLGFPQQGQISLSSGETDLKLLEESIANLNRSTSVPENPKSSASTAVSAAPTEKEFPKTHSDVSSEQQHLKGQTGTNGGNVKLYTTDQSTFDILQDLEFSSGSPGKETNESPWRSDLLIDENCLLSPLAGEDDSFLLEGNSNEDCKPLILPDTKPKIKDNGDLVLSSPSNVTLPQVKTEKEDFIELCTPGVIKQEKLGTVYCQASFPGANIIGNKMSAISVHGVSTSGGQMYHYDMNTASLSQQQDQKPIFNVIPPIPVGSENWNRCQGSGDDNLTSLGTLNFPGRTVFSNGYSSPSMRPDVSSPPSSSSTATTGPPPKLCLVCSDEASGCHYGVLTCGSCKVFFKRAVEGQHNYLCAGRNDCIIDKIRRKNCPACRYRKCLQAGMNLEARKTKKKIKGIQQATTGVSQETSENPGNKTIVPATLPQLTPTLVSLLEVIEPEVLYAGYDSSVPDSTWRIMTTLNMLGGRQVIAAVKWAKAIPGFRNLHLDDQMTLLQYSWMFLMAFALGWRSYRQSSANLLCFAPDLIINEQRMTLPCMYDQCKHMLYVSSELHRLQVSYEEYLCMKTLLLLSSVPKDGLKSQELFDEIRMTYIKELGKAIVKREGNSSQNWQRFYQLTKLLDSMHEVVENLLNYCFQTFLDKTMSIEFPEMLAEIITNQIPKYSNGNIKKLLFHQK
Assay: GR competitor assay by fluorescence polarization (GR binding ratio)
Conditions: positive control 2 mM dexamethasone, a GR binding ratio of 100% or more is indicated by 100%
Method: 1. Evaluation Test for Binding Activity to Glucocorticoid Receptor (hereinafter referred to as “GR”)
In order to evaluate a binding activity to GR, a receptor competitor assay was carried out by a fluorescence polarization method. In the assay, a GR competitor assay kit (manufactured by Invitrogen, cat No. P2816) was used, and a procedure was carried out according to the protocol attached to the kit. Hereinafter, the specific method will be described.
GR screening buffer: A buffer containing 10 mM potassium phosphate (pH 7.4), 20 mM sodium molybdate (Na2MoO4), 0.1 mM ethylene diamine tetraacetic acid (EDTA), 5 mM dithiothreitol (DTT), 0.1 mM stabilizing peptide and 2% dimethylsulfoxide was prepared.
4×GS1 solution: Fluormone™ GS1, which is a fluorescent glucocorticoid ligand, was diluted with GR screening buffer, whereby a 4 nM solution was prepared.
4×GR solution: Recombinant human GR was diluted with GR screening buffer, whereby a 16 nM solution was prepared.
After a test compound was dissolved in dimethylsulfoxide, the resulting solution was diluted with GR screening buffer, whereby a 20 μM test compound solution was prepared.
1) The test compound solution was added in an amount of 25 μL or 10 μL into each well of a 96-well or 384-well plate, and then, 4×GS1 solution and 4×GR solution were added in an amount of 12.5 μL or 5 μL into each well, respectively.
2) The plate was incubated in a dark place at room temperature for 2 to 4 hours.
3) By using a multimode plate reader, Analyst™ HT (manufactured by LJL Biosystems), fluorescence polarization of each well was measured. As the blank, a well containing GR screening buffer in place of the test compound and 4×GS1 solution was used.
4) The same procedure as that in the above 1) to 3) was carried out except that GR screening buffer was used in place of the test compound solution, and the obtained result was taken as the negative control.
5) The same procedure as that in the above 1) to 3) was carried out except that 2 mM dexamethasone was used in place of the test compound solution, and the obtained result was taken as the positive control.
A GR binding ratio (%) was calculated from the following equation.
GR binding ratio (%)=100×[1−(fluorescence polarization of test compound solution−fluorescence polarization of positive control solution)/(fluorescence polarization of negative control solution−fluorescence polarization of positive control solution)]

SMILES	GR Binding ratio (%)
COc1cc(F)ccc1-c1ccc2c(c1COc1cc(C)ccc1C)C(C)=CC(C)(C)N2 [Compound 3-58, 5-(2,5-Dimethylphenoxymethyl)-6-(4-fluoro-2-methoxyphenyl)-2,2,4-trimethyl-1,2-dihydroquinoline]	≥ 100%
CCOc1ccccc1NCc1c(-c2ccc(F)cc2OC)ccc2c1C(C)=CC(C)(C)N2 [Compound 6-24, 5-(2-Ethoxyphenylaminomethyl)-6-(4-fluoro-2-methoxyphenyl)-2,2,4-trimethyl-1,2-dihydroquinoline]	≥ 100%
COc1ccccc1NCc1c(-c2ccc(F)cc2OC)ccc2c1C(C)=CC(C)(C)N2 [Compound 6-20, 6-(4-Fluoro-2-methoxyphenyl)-5-(2-methoxyphenylaminomethyl)-2,2,4-trimethyl-1,2-dihydroquinoline]	≥ 100%
CCc1ccccc1OCc1c(-c2ccc(F)cc2OC)ccc2c1C(C)=CC(C)(C)N2 [Compound 3-33, 5-(2-Ethylphenoxymethyl)-6-(4-fluoro-2-methoxyphenyl)-2,2,4-trimethyl-1,2-dihydroquinoline]	≥ 100%
COc1ccc(C)cc1-c1ccc2c(c1COc1cc(F)ccc1C)C(C)=CC(C)(C)N2 [Compound 14-11, 5-(5-Fluoro-2-methylphenoxymethyl)-6-(2-methoxy-5-methylphenyl)-2,2,4-trimethyl-1,2-dihydroquinoline]	≥ 100%
COc1ccc(Cl)cc1-c1ccc2c(c1COc1cc([N+](=O)[O-])ccc1C)C(C)=CC(C)(C)N2 [Compound 14-12, 6-(5-Chloro-2-methoxyphenyl)-5-(2-methyl-5-nitrophenoxymethyl)-2,2,4-trimethyl-1,2-dihydroquinoline]	≥ 100%
COc1ccc(OCc2ccccc2)cc1-c1ccc2c(c1COc1cc(F)ccc1C)C(C)=CC(C)(C)N2 [Compound 15-2, 6-(5-Benzyloxy-2-methoxyphenyl)-5-(5-fluoro-2-methylphenoxymethyl)-2,2,4-trimethyl-1,2-dihydroquinoline]	76%
C=CCc1ccccc1OCc1c(-c2cc(Cl)ccc2OC)ccc2c1C(C)=CC(C)(C)N2 [Compound 14-47, 5-(2-Allylphenoxymethyl)-6-(5-chloro-2-methoxyphenyl)-2,2,4-trimethyl-1,2-dihydroquinoline]	≥ 100%
COc1ccc(C)cc1NCc1c(-c2ccc(F)cc2OC)ccc2c1C(C)=CC(C)(C)N2 [Compound 6-43, 6-(4-Fluoro-2-methoxyphenyl)-5-(2-methoxy-5-methylphenylaminomethyl)-2,2,4-trimethyl-1,2-dihydroquinoline]	≥ 100%
COc1ccc(F)cc1-c1ccc2c(c1COc1cc(C)ccc1C)C(C)=CC(C)(C)N2 [Compound 14-40, 5-(2,5-Dimethylphenoxymethyl)-6-(5-fluoro-2-methoxyphenyl)-2,2,4-trimethyl-1,2-dihydroquinoline]	≥ 100%
COc1ccccc1NCc1c(-c2cc(C)ccc2OC)ccc2c1C(C)=CC(C)(C)N2 [Compound 6-76, 6-(2-Methoxy-5-methylphenyl)-5-(2-methoxyphenylaminomethyl)-2,2,4-trimethyl-1,2-dihydroquinoline]	≥ 100%
COc1cc(F)c(F)cc1-c1ccc2c(c1CNc1ccccc1C)C(C)=CC(C)(C)N2 [Compound 6-59, 6-(4,5-Difluoro-2-methoxyphenyl)-5-(2-methylphenylaminomethyl)-2,2,4-trimethyl-1,2-dihydroquinoline]	96%
COc1ccc(F)cc1-c1ccc2c(c1COc1ccccc1CCO)C(C)=CC(C)(C)N2 [Compound 3-99, 6-(5-Fluoro-2-methoxyphenyl)-5-[2-(2-hydroxyethyl)phenoxymethyl]-2,2,4-trimethyl-1,2-dihydroquinoline]	≥ 100%
COc1ccc(C)cc1-c1ccc2c(c1COC(=O)c1ccc(C)s1)C(C)=CC(C)(C)N2 [Compound 12-67, 6-(2-Methoxy-5-methylphenyl)-5-(5-methylthiophen-2-yl-carbonyloxymethyl)-2,2,4-trimethyl-1,2-dihydroquinoline]	≥ 100%
COc1ccc(Cl)cc1-c1ccc2c(c1COc1cc(F)ccc1C)C(C)=CC(C)(C)N2 [Compound 14-13, 6-(5-Chloro-2-methoxyphenyl)-5-(5-fluoro-2-methylphenoxymethyl)-2,2,4-trimethyl-1,2-dihydroquinoline]	≥ 100%
COc1ccccc1NCc1c(-c2cc(F)ccc2OC)ccc2c1C(C)=CC(C)(C)N2 [Compound 6-75, 6-(5-Fluoro-2-methoxyphenyl)-5-(2-methoxyphenylaminomethyl)-2,2,4-trimethyl-1,2-dihydroquinoline]	≥ 100%
COc1cc(F)ccc1-c1ccc2c(c1COc1cc(C=O)ccc1C)C(C)=CC(C)(C)N2 [Compound 3-94, 6-(4-Fluoro-2-methoxyphenyl)-5-(5-formyl-2-methylphenoxymethyl)-2,2,4-trimethyl-1,2-dihydroquinoline]	≥ 100%
COc1cc(F)ccc1-c1ccc2c(c1COc1cc([N+](=O)[O-])ccc1C#N)C(C)=CC(C)(C)N2 [Compound 3-91, 5-(2-Cyano-5-nitrophenoxymethyl)-6-(4-fluoro-2-methoxyphenyl)-2,2,4-trimethyl-1,2-dihydraquinoline]	≥ 100%
COc1cc(F)ccc1-c1ccc2c(c1COC(=O)c1ccc3c(c1)OCO3)C(C)=CC(C)(C)N2 [Compound 12-42, 5-[(1,3-Benzodioxol-5-yl)carbonyloxymethyl]-6-(4-fluoro-2-methoxyphenyl)-2,2,4-trimethyl-1,2-dihydroquinoline]	99%
COc1cc(F)ccc1-c1ccc2c(c1COc1ccccc1C)C(C)=CC(C)(C)N2 [Compound 3-22, 6-(4-Fluoro-2-methoxyphenyl)-5-(2-methylphenoxymethyl)-2,2,4-trimethyl-1,2-dihydroquinoline]	99%
COc1cc(F)ccc1-c1ccc2c(c1COc1ccccc1C(C)C)C(C)=CC(C)(C)N2 [Compound 3-69, 5-(2-Isopropylphenoxymethyl)-6-(4-fluoro-2-methoxyphenyl)-2,2,4-trimethyl-1,2-dihydroquinoline]	≥ 100%
COc1ccccc1NCc1c(-c2cc(F)c(F)cc2OC)ccc2c1C(C)=CC(C)(C)N2 [Compound 6-27, 6-(4,5-Difluoro-2-methoxyphenyl)-5-(2-methoxyphenylaminomethyl)-2,2,4-trimethyl-1,2-dihydroquinoline]	≥ 100%
COc1ccc(C(=O)OCc2c(-c3ccc(F)cc3OC)ccc3c2C(C)=CC(C)(C)N3)s1 [Compound 12-33, 6-(4-Fluoro-2-methoxyphenyl)-5-[(5-methoxythiophen-2-yl)carbonyloxymethyl]-2,2,4-trimethyl-1,2-dihydroquinoline]	≥ 100%
COc1cc(F)ccc1-c1ccc2c(c1COc1cc(F)ccc1C)C(C)=CC(C)(C)N2 [Compound 3-48, 6-(4-Fluoro-2-methoxyphenyl)-5-(5-fluoro-2-methylphenoxymethyl)-2,2,4-trimethyl-1,2-dihydroquinoline]	≥ 100%

From US8017775B2, “1-2-dihydroquinoline derivative having glucocorticoid receptor binding activity” (Santen Pharmaceutical Co., Ltd., priority 2005, dated 2011)
